# Assay: Cuticle abrasion method after bleaching of hair switches
# Conditions: solution 2 versus solution 1
# Experimental: The bleaching solutions 1 and 2 were each divided into three parts A, B and C. A was adjusted to pH 9.7, B to pH 10.1 and C to pH 10.5. Each solution was adjusted to the required pH with ammonium hydroxide (ex sigma, 28.1% active). The six solutions were each dosed (1.6 ml/g hair) onto a separate Spanish hair switch (8 g, 8″, ex Hugo Royer Hair Suppliers) in a disposable petri dish using an automatic pipette. Each switch was then agitated for 90 sec using a spoon ended plastic spatula. […] Each switch was then rinsed and left to dry naturally. Step 3: Cuticle Abrasion Method This method provides a measure of the extent of hair damage following the bleaching step. […] Rinse and repeat. The base wash used is 12% SLES, 2% CAPB in water. Dry them overnight. […] Record the initial weight of the hair. Add 200 ml of distilled water to the blender, making sure that the hair is covered with water. […] Transfer the liquid to a fresh tube. Wash the blender and add this, to the tube, as well. Pour the supernatant in 4×50 ml centrifuge tubes and centrifuge at 4300 rpm for 10 mins, 22° C. Pour the pellet on the filters, wash the tube and add this as well. Transfer the supernatant to centrifuge tubes and centrifuge at 4300 rpm for 10 min. Transfer the pellet to a beaker, wash the tube 2-3 times and top with water until 50 ml. Freeze them until solid. Freeze dry them for 24 hours in Modulyo freeze drier. Once dry, weigh amount of cuticle recovered. Final measure is calculated as follows: […] This measure provides the % weight of cuticle abraded from the hair fibres which reflects the state of damage of the hair tested. Thus the greater amount of cuticle recovered the more damaged the tested hair.
smiles,measurement,setting,value
CC(C)CCC[C@@H](C)[C@H]1CC[C@H]2[C@@H]3CC=C4C[C@@H](O)CC[C@]4(C)[C@H]3CC[C@]12C [cholesterol],% reduction in damage of hair when cholesterol present,pH 9.7,3.95%
same,% reduction in damage of hair when cholesterol present,pH 10.1,12.211%
same,% reduction in damage of hair when cholesterol present,pH 10.5,30.902%

# — US20010029636A1, “Hair bleaching and colouring compositions” (priority 1999, published 2001)
